Assay results reported in ChEMBL document CHEMBL4610028, “Variegatic acid from the edible mushroom Tylopilus ballouii inhibits TNF-α production and PKCβ1 activity in leukemia cells” (Bioorg Med Chem Lett, 2020).

Columns and labels:
[1] = biological target: T1, Protein kinase C beta type (Rattus norvegicus, UniProt P68403); test: Inhibition of PKCbeta in rat RBL2H3 cells assessed as inhibition of ionomycin-stimulated beta-hexosaminidase release preincubated for 15 mins followed by ionomycin stimulation and measured after 3 hrs by 4-nitropheny1-2-acetamide-2-deoxy-beta-glucopyranoside substrate based colorimetric method; format: cell-based, RBL-2H3
T1 sequence (P68403 whole entry): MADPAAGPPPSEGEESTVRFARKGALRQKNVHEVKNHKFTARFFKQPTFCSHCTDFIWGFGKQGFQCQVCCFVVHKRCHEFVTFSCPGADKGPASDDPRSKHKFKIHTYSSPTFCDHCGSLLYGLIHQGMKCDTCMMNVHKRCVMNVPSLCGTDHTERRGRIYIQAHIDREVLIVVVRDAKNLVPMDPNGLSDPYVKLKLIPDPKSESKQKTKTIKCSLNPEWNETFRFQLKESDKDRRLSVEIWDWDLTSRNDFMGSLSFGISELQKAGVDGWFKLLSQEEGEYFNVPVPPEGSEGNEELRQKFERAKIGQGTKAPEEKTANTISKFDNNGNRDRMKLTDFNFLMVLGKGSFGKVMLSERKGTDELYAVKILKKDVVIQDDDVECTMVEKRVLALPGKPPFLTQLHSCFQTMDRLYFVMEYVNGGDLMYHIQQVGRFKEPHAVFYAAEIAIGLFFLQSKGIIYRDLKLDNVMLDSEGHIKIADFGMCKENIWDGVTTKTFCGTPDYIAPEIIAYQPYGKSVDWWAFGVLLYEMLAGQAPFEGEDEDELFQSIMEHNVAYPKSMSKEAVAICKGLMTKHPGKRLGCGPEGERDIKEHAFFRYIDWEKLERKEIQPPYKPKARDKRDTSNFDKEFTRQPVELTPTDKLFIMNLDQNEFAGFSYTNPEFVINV

[2] = biological target: T1, Protein kinase C beta type; test: Inhibition of PKCbeta in rat RBL2H3 cells assessed as inhibition of anti-DNP IgE-stimulated TNFalpha release preincubated for 15 mins followed by mouse anti-DNP IgE stimulation and measured after 3 hrs by ELISA; format: cell-based, RBL-2H3
[3] = biological target: T1, Protein kinase C beta type; test: Inhibition of PKCbeta in rat RBL2H3 cells assessed as inhibition of ionomycin-stimulated TNFalpha release preincubated for 15 mins followed by ionomycin stimulation and measured after 3 hrs by ELISA; format: cell-based, RBL-2H3
[4] = biological target: Protein kinase C beta type (Homo sapiens, UniProt P05771); test: Inhibition of recombinant full-length N-temrinal GST-tagged human PKC beta1 expressed in baculovirus infected Sf9 cells using TMB as substrate incubated for 4.5 hrs by colorimetric analysis

- IC50 [1]: 22.2 µM
- IC50 [2]: 16.8 µM
- IC50 [3]: 20.1 µM
- IC50 [4]: 36.2 µM
- inhibition [4]: Dose-dependent effect
Structure (SMILES): O=C1O/C(=C(/C(=O)O)c2ccc(O)c(O)c2)C(O)=C1c1ccc(O)c(O)c1
